The values that follow come from patent US8603498B2, “Lipo-phosphated or lipo-sulphated compound, compositions comprising it and topical uses thereof” (Sederma, S.A.S., priority 2010, dated 2013).

The test system of one assay is transglutaminase-1 m-RNA. Description: Transglutaminase-1 m-RNA in keratinocytes by qRT-PCR. The note with it: 5 ppm, 14 days; for m-RNA % change: after normalisation by the housekeeping gene. Type of assay: cell-based, human. From the text:
ByqRT-PCR: Human keratinocytes were placed in contact/not placed in contact with solubilised for 14 days. At the end of the contact period, the cultures were stopped and m-RNA allowing production of transglutaminase-1 protein was quantified using the RT-PCR method.
After extraction and purification of the m-RNA, copies are made in DNA using a Reverse Transcriptase (RT). The number of copies of a given m-RNA (here that of TGase) is thereafter amplified using two oligonucleotides (called primers) specific to the gene of TGase and to an enzyme (PCR=polymerase chain reaction) during a series of amplification cycles, each of which doubling the number of copies present. The result of this amplication is measured by fluorescence. Ct is the number of cycles required to achieve a given fluorescence level (arbitrarily set). It is clear, that the more m-RNA of a given gene present in the starting culture there are, the fewer cycles (Ct) are needed to reach the set level of fluorescence.
Background: In qPCR the cycle at which signal appears reflects the starting amount.

For the next assay, the system named is cholesterol. Description: Cholesterol in keratinocytes by HPTLC. The class given is cell-based, human. The note with it: 5 ppm, 7 days. The protocol:
The same protocol was followed as before but a larger quantity of keratinocyes was used on this occasion because of the limits of detection of the apparatus. After 7 days, the layers were rinsed, lipids extracted using solvents before being deposited on a thin-layer chromatography plate using an automated device. After migration and detection, the bands were analysed and quantified based on a range of standard lipids deposited on the same plate.

For a further assay, the system named is collagen I. Description: Synthesis of collagen I on human dermal fibroblast (immunolabeling). Type of assay: cell-based. The note with it: for collagen I AFU mean: 7 days. How it is done:
Normal human fibroblasts (NHF) are cultivated in MW24 plates for 24 hours. The cells are contacted or not with the Lipo-Phosphomalate of the invention at various concentrations for 7 days. The synthesis of collagen I produced by the cells is then quantified by immunolabeling fixed on the layers using a specific antibody. Quantification by image analysis is then performed on the photos. TGF-β1 is used as positive control.
An analysis of variance was performed on the data (cases treated compared with untreated cases). In the case of identity of variances, a Student't test was then performed on the means.

A further assay deals with matriptase. Description: Production of matriptase in cultured human keratinocytes by immunolabelling. The class given is cell-based. The note with it: for Matriptase Change (%): vs control.
The target of another assay is T1, tyrosinase (Homo sapiens, UniProt P14679).
T1 construct: endogenous in cells; host or cells: human melanocytes (homogenates)
T1 sequence (P14679 19-529): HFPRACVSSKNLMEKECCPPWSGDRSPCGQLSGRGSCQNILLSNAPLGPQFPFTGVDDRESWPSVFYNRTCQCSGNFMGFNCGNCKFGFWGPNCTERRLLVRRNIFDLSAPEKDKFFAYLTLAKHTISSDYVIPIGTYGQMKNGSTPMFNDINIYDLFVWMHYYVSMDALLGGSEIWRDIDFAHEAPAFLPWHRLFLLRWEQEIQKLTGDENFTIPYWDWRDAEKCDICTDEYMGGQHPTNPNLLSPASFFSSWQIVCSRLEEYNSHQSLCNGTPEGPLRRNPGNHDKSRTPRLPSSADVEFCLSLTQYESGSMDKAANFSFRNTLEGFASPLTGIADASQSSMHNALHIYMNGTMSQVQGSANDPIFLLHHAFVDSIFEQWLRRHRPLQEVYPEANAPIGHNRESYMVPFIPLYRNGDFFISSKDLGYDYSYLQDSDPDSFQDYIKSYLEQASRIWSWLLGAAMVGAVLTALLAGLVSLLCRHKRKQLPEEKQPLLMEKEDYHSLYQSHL
Briefly: Tyrosinase activity of human melanocytes. Type of assay: cell-based. The settings on record: 5 days. How it is done: Human melanocyte are sowed and contacted with the […] for 5 days. At the end of the incubation period, the residual tyrosinase activity was measured in cell homogenates.

The test system of a further assay is CD44. Briefly: CD44 synthesis by human keratinocytes (immunological labeling). Type of assay: cell-based. The settings on record: 5 ppm, 22 days. From the text:
Human keratinocytes were cultivitated in 35 mm box to confluence. Cells are contacted or not with the Lipo-Phosphomalate for 22 days. At the end of this contact period, the cells are fixed and an immunological labeling of the CD44 is made using specific antibodies.

Take `CCCCCCCCCCCCCCOC(=O)CC(OP(=O)(O)O)C(=O)O` (stereo not shown) [Lipo-Phosphomalate, 2-phosphate-succinic-acid-4-tetradecyle ester]: the m-RNA % change entry in the assay with transglutaminase-1 m-RNA (listed as Solubilised Lipo-Phosphomalate) is reported as “+101%; p < 0.01”; in the assay on transglutaminase-1 m-RNA (listed as solubilised Lipo-Phosphomalate), “~+100%”. Further, in the assay with transglutaminase-1 m-RNA (control 24.60 ± 0.42), the “m-RNA Number of cycles: Ct” value turned out to be 23.25 ± 0.46. For the same compound, in the assay on cholesterol, the “HPTLC Cholesterol (pg/10^6 cell.)” value is 30.89 ± 7.20 pg/10^6 cell. Further, in the assay with cholesterol (vs control), the “HPTLC Cholesterol % Change” value is recorded as “+53%; p < 0.05”. Further, the “collagen I AFU mean” value in the assay on collagen I (Eq 1%) was 8.1 +/− 5.6 AFU; with collagen I (Eq 3%) it was 21.1 +/− 13.8 AFU; in the assay with collagen I (Eq 5%), 30.4 +/− 14.6 AFU. The “collagen I % Variation/control” value in the assay on collagen I (Eq 1%, p = 0.09) is on record as “+60%;”; with collagen I (Eq 3%), “+315%;”; in the assay with collagen I (Eq 5%), “+496%;”. Besides, the “Matriptase (UFA/10^6 cell.)” value came out at 2.27 ± 0.47 UFA/10^6 cell in the assay with matriptase (1.5 ppm) and 4.08 ± 1.56 UFA/10^6 cell in the assay with matriptase (5 ppm). For the same compound, the “Matriptase Change (%)” value in the assay on matriptase (1.5 ppm) is recorded as “+125%; p < 0.01”; in the assay with matriptase (5 ppm, listed as Solubilised Lipo-Phosphomalate) it was “+304%; p < 0.01”; with matriptase (5 ppm, listed as solubilised Lipo-Phosphomalate), “+304%”. For the same compound, the “tyrosinase activity Variation (%)” value on tyrosinase (10 ppm) is reported as −21%; p < 0.01; on tyrosinase (12 ppm), −28%; p < 0.01; on tyrosinase (15 ppm) it was −31%; p < 0.01. Besides, the “CD44 % Variation/control” value in the assay with CD44 was “+587%; p <”. Moreover, in the assay on CD44, the “CD44 UFA/10^6 cells” value was 27.20 +/− 16.5 UFA/10^6 cells. Further, the “CD44 variation/control (times)” value in the assay with CD44 is 0.01 => ×7.
